One assay deals with c-Mer (Homo sapiens (Human), UniProt Q12866). In words: TAM Kinase Assay (HTRF), c-Mer. In kind it is biochemical. A general note: In TR-FRET formats the signal depends on donor and acceptor labels being close together.
A further assay has as its target phosphor-Axl (Homo sapiens (Human), UniProt P30530). In words: TAM Kinase Assay (HTRF), phosphor-Axl.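 Note: test enzyme was recombinant Axl protein, pre-activated by autophosphorylation with ATP and MgCl2.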 In kind it is biochemical. The note with it: read-out: Phospho-Axl IC50.
The next assay addresses Tyro3 (Homo sapiens (Human), UniProt Q06418). Nature of the assay: TAM Kinase Assay (HTRF), Tyro3. In kind it is biochemical. The note with it: 0.366 nM Tyro3, HTRF, 60 min room temperature; read-out: Tyro3IC50.
In the next assay the target is JAK2 (Homo sapiens (Human), UniProt O60674). The note with it: selectivity ratio, IC50 at 1 mM ATP; cited from earlier work.
A further assay relates to NK cells. The note with it: cited from earlier work.
Assay [1] deals with tumor models with different histologies. The note with it: cited from earlier work.
Where [2] appears, read: 0.0625 nM c-Mer, HTRF, 60 min room temperature, read-out: c-Mer IC50.
Setting [3] is: 5.1 nM phosphor-Axl, HTRF, 60 min room temperature.

Where two headings read alike, the source gives them in different places.

Sequence of phosphor-Axl (P30530 26-894): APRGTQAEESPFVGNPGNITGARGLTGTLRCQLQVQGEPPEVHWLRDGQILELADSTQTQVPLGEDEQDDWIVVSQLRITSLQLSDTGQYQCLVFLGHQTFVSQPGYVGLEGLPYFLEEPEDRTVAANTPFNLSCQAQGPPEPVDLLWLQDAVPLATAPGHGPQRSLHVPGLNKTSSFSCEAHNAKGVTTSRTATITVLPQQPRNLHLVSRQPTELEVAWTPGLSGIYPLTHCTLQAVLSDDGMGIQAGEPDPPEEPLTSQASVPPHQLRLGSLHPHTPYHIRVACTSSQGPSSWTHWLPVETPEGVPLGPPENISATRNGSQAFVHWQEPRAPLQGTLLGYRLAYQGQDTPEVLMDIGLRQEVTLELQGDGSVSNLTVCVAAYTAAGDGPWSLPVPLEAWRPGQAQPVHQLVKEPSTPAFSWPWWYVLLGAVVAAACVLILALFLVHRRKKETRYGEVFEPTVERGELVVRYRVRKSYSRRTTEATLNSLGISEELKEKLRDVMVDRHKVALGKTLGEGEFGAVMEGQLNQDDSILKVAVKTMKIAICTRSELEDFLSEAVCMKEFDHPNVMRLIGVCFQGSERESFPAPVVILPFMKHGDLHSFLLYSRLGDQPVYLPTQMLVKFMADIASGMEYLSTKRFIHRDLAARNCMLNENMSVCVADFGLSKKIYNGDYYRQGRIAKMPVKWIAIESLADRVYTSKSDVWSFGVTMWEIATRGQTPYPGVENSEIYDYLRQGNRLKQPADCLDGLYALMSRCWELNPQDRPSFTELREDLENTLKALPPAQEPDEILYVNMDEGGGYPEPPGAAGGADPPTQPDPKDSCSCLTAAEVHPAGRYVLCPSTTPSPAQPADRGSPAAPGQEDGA
Sequence of Tyro3 (Q06418 41-890): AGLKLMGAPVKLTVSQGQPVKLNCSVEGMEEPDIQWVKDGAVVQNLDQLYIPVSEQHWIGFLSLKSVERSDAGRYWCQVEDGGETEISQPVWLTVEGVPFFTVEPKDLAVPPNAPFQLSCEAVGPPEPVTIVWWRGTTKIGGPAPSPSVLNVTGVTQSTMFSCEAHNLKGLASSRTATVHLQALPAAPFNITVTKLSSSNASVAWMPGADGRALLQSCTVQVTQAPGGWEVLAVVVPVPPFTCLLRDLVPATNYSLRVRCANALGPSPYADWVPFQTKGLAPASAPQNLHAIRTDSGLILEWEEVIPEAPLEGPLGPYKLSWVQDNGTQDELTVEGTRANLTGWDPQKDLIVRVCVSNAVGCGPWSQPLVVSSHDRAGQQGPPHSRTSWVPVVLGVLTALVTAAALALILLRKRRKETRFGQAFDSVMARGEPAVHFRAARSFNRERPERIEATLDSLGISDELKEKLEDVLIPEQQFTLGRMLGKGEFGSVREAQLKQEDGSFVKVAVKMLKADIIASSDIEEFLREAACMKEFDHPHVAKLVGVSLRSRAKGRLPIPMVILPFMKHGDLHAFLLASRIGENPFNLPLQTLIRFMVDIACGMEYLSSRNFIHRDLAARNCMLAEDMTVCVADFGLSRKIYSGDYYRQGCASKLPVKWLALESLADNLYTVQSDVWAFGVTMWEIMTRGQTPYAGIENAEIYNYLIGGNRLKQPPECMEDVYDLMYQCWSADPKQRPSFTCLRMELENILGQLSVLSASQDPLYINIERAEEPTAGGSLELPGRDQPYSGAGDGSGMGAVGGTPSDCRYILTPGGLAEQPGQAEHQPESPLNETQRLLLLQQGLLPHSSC
Sequence of JAK2 (O60674 whole entry, species assumed): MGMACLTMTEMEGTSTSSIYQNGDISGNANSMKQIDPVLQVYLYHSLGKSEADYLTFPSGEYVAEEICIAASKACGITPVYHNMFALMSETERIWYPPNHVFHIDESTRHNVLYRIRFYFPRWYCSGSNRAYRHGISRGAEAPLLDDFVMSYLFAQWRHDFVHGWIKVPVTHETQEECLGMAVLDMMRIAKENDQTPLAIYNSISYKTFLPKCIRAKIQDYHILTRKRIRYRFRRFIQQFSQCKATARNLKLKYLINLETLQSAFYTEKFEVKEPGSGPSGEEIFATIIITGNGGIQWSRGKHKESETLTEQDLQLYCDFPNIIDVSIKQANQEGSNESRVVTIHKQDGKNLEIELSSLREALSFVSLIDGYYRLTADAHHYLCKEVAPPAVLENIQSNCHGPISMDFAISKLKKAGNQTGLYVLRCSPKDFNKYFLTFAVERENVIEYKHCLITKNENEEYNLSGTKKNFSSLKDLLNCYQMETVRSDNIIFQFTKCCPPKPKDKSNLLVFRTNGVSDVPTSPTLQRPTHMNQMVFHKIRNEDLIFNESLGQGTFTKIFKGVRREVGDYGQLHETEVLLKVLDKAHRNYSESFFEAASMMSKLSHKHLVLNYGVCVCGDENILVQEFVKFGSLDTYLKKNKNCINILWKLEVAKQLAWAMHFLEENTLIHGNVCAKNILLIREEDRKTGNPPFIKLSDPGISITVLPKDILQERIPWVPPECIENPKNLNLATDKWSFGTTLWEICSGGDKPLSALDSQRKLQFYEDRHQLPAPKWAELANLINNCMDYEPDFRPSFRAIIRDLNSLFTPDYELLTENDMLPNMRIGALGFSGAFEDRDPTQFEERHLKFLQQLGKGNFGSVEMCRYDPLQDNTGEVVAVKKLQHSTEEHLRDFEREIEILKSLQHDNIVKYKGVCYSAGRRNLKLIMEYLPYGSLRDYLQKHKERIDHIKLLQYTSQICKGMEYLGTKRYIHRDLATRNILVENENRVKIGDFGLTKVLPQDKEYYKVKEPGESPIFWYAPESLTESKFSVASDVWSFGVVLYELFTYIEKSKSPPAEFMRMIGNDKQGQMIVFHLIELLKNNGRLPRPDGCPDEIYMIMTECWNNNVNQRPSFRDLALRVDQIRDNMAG
Method for Tyro3: (§1) 0.1 ul test compounds dissolved in DMSO were transferred from compound plates to white 384-well assay plates (Greiner [sequence] plates). […] The plate was protected from light and incubated at room temperature for 60 min.
Method for c-Mer: as §1
Method for phosphor-Axl: Autophosphorylation of Axl was carried out by incubating the recombinant Axl protein (Life Technologies, PV4275) in buffer containing 50 mM Tris, pH7.5, 0.2 mg/ml Axl, 5 mM ATP, 20 mM MgCl2 and 2 mM DTT at room temperature for 1 hour.
as §1

Turning to `FCC1(c2cccc(-c3ncnc4[nH]ccc34)c2)Cc2ccccc2C1` [Example 19, 4-{3-[2-(Fluoromethyl)-2,3-dihydro-1H-inden-2-yl]phenyl}-7H-pyrrolo[2,3-d]pyrimidine], the IC50 on c-Mer (setting [2]), at phosphor-Axl (setting [3]) and at Tyro3 was > 3 µM throughout.
Take `CNCC1(c2cccc(-c3ncnc4[nH]ccc34)c2)Cc2ccccc2C1` [Example 24, N-Methyl-1-{2-[3-(7H-pyrrolo[2,3-d]pyrimidin-4-yl)phenyl]-2,3-dihydro-1H-inden-2-yl}methanamine]: the figures for the IC50 at c-Mer (setting [2]), at phosphor-Axl (setting [3]) and at Tyro3 were < 0.5 µM, < 0.5 µM and > 3 µM, respectively.
`CC(=O)NCC1(c2cccc(-c3ncnc4[nH]ccc34)c2)Cc2ccncc2C1` (stereo not drawn) [Example 10, N-({6-[3-(7H-Pyrrolo[2,3-d]pyrimidin-4-yl)phenyl]-6,7-dihydro-5H-cyclopenta[c]pyridin-6-yl}methyl)acetamide]: the results for the IC50 at phosphor-Axl (setting [3]) and on Tyro3 were 1 to 3 µM and > 3 µM, respectively.
For the molecule `NCC1(c2cccc(-c3ncnc4[nH]ccc34)c2)Cc2ccncc2C1` (stereo not drawn) [Example 5, 1-{6-[3-(7H-Pyrrolo[2,3-d]pyrimidin-4-yl)phenyl]-6,7-dihydro-5H-cyclopenta[c]pyridin-6-yl}methanamine], the IC50 on c-Mer (setting [2]) was < 0.5 µM; on phosphor-Axl (setting [3]) it was < 0.5 µM; on Tyro3 it was 1 to 3 µM.
Take `O=C(NCC1(c2cccc(-c3ncnc4[nH]ccc34)c2)Cc2ccccc2C1)c1ccno1` [Example 31, N-({2-[3-(7H-Pyrrolo[2,3-d]pyrimidin-4-yl)phenyl]-2,3-dihydro-1H-inden-2-yl}methyl)isoxazole-5-carboxamide]: the IC50 at c-Mer (setting [2]), at phosphor-Axl (setting [3]) and on Tyro3 was > 3 µM in each case.
With `COCC1(c2cccc(-c3ncnc4[nH]ccc34)c2)Cc2ccccc2C1` [Example 25, 4-{3-[2-(Methoxymethyl)-2,3-dihydro-1H-inden-2-yl]phenyl}-7H-pyrrolo[2,3-d]pyrimidine], the IC50 on c-Mer (setting [2]) is > 3 µM; at phosphor-Axl (setting [3]), 1 to 3 µM; at Tyro3 it was > 3 µM.
As to `NCC1(c2cc(-c3ncnc4[nH]ccc34)ccn2)Cc2ccccc2C1` [Example 3, 1-{2-[4-(7H-Pyrrolo[2,3-d]pyrimidin-4-yl)pyridin-2-yl]-2,3-dihydro-1H-inden-2-yl}methanamine], the IC50 on c-Mer (setting [2]) is < 0.5 µM; at phosphor-Axl (setting [3]) it was < 0.5 µM; on Tyro3 it was 1 to 3 µM.
Consider `NCC1(c2cccc(-c3ncnc4[nH]ccc34)n2)Cc2ccccc2C1` [Example 2, 1-{2-[6-(7H-Pyrrolo[2,3-d]pyrimidin-4-yl)pyridin-2-yl]-2,3-dihydro-1H-inden-2-yl}methanamine], for which the values for the IC50 at c-Mer (setting [2]), on phosphor-Axl (setting [3]) and at Tyro3 were 1 to 3 µM, 1 to 3 µM and > 3 µM, respectively.
As to `CC(=O)NCC1(c2cc(-c3ncnc4[nH]ccc34)ccn2)Cc2ccccc2C1` [Example 8, N-({2-[4-(7H-Pyrrolo[2,3-d]pyrimidin-4-yl)pyridin-2-yl]-2,3-dihydro-1H-inden-2-yl}methyl)acetamide], the results for the IC50 at phosphor-Axl (setting [3]) and on Tyro3 were 1 to 3 µM and > 3 µM, respectively.
Consider `O=C(NCC1(c2cccc(-c3ncnc4[nH]ccc34)c2)Cc2ccccc2C1)c1cccs1` [Example 28], for which the IC50 was > 3 µM at c-Mer (setting [2]), 1 to 3 µM on phosphor-Axl (setting [3]) and > 3 µM on Tyro3.
Regarding `NCC1(c2cccc(-c3ncnc4[nH]ccc34)c2)Cc2cccnc2C1` (stereo not drawn) [Example 6, 1-{6-[3-(7H-Pyrrolo[2,3-d]pyrimidin-4-yl)phenyl]-6,7-dihydro-5H-cyclopenta[b]pyridin-6-yl}methanamine], the IC50 is < 0.5 µM on c-Mer (setting [2]), < 0.5 µM on phosphor-Axl (setting [3]) and > 3 µM on Tyro3.
`CC(=O)NCC1(c2cccc(-c3ncnc4[nH]ccc34)c2)Cc2ccccc2C1` [Example 16, N-({2-[3-(7H-Pyrrolo[2,3-d]pyrimidin-4-yl)phenyl]-2,3-dihydro-1H-inden-2-yl}methyl)acetamide]: the results for the IC50 at c-Mer (setting [2]), on phosphor-Axl (setting [3]) and on Tyro3 were < 0.5 µM, < 0.5 µM and > 3 µM, respectively.
For `O=C(NCC1(c2cccc(-c3ncnc4[nH]ccc34)c2)Cc2ccccc2C1)C1CCCC1` [Example 27, N-({2-[3-(7H-Pyrrolo[2,3-d]pyrimidin-4-yl)phenyl]-2,3-dihydro-1H-inden-2-yl}methyl)cyclopentanecarboxamide], the IC50 at phosphor-Axl (setting [3]) was < 0.5 µM; on Tyro3, > 3 µM.
Take `FC(F)C1(c2cccc(-c3ncnc4[nH]ccc34)c2)Cc2ccccc2C1` [Example 20, 4-{3-[2-(Difluoromethyl)-2,3-dihydro-1H-inden-2-yl]phenyl}-7H-pyrrolo[2,3-d]pyrimidine]: the IC50 on c-Mer (setting [2]), on phosphor-Axl (setting [3]) and at Tyro3 was > 3 µM in each case.
Turning to `NCC1(c2ccnc(-c3ncnc4[nH]ccc34)c2)Cc2ccccc2C1` [Example 4, 1-{2-[2-(7H-Pyrrolo[2,3-d]pyrimidin-4-yl)pyridin-4-yl]-2,3-dihydro-1H-inden-2-yl}methanamine], the IC50 at c-Mer (setting [2]) was 0.5 to 1 µM; at phosphor-Axl (setting [3]), 0.5 to 1 µM; at Tyro3 it was > 3 µM.
With `NCC1(c2cncc(-c3ncnc4[nH]ccc34)c2)Cc2ccccc2C1` [Example 1, 1-{2-[5-(7H-Pyrrolo[2,3-d]pyrimidin-4-yl)pyridin-3-yl]-2,3-dihydro-1H-inden-2-yl}methanamine], the IC50 on c-Mer (setting [2]) was < 0.5 µM; on phosphor-Axl (setting [3]), < 0.5 µM; on Tyro3, > 3 µM.
On to `NCC1(c2cc(-c3ncnc4[nH]ccc34)cc(Cl)n2)Cc2ccccc2C1` [Example 7, 1-{2-[6-Chloro-4-(7H-pyrrolo[2,3-d]pyrimidin-4-yl)pyridin-2-yl]-2,3-dihydro-1H-inden-2-yl}methanamine], for which the figures for the IC50 on c-Mer (setting [2]), on phosphor-Axl (setting [3]) and at Tyro3 were < 0.5 µM, < 0.5 µM and > 3 µM, respectively.
Turning to `CC(C)C(=O)NCC1(c2cccc(-c3ncnc4[nH]ccc34)c2)Cc2ccccc2C1` [Example 17, 2-Methyl-N-({2-[3-(7H-pyrrolo[2,3-d]pyrimidin-4-yl)phenyl]-2,3-dihydro-1H-inden-2-yl}methyl)propanamide], the values for the IC50 on c-Mer (setting [2]), at phosphor-Axl (setting [3]) and at Tyro3 were < 0.5 µM, < 0.5 µM and > 3 µM, respectively.
In the case of `CS(=O)(=O)NCC1(c2cccc(-c3ncnc4[nH]ccc34)c2)Cc2ccccc2C1` [Example 21, N-({2-[3-(7H-Pyrrolo[2,3-d]pyrimidin-4-yl)phenyl]-2,3-dihydro-1H-inden-2-yl}methyl)methanesulfonamide], the figures for the IC50 at c-Mer (setting [2]), at phosphor-Axl (setting [3]) and on Tyro3 were 1 to 3 µM, 0.5 to 1 µM and > 3 µM, respectively.
With `CN(C)CC1(c2cccc(-c3ncnc4[nH]ccc34)c2)Cc2ccccc2C1` [Example 23, N,N-Dimethyl-1-{2-[3-(7H-pyrrolo[2,3-d]pyrimidin-4-yl)phenyl]-2,3-dihydro-1H-inden-2-yl}methanamine], the IC50 at c-Mer (setting [2]) is < 0.5 µM; at phosphor-Axl (setting [3]) it was < 0.5 µM; at Tyro3, > 3 µM.
Regarding `N#CCC1(n2cc(-c3ncnc4[nH]ccc34)cn2)CN(C2CCN(C(=O)c3ccnc(C(F)(F)F)n3)CC2)C1` [Compound 9, [3-[4-(7H-pyrrolo[2,3-d]pyrimidin-4-yl)-1H-pyrazol-1-yl]-1-(1-{[2-(trifluoromethyl)pyrimidin-4-yl]carbonyl}piperidin-4-yl)azetidin-3-yl]acetonitrile, reference compound], the JAK2/JAK1 on JAK2 is >10.
In the case of `NCC1(c2cccc(-c3ncnc4[nH]ccc34)c2)Cc2ccccc2C1` [Example 11, 1-{2-[3-(7H-Pyrrolo[2,3-d]pyrimidin-4-yl)phenyl]-2,3-dihydro-1H-inden-2-yl}methanamine], the IC50 at c-Mer (setting [2]) was < 0.5 µM; at phosphor-Axl (setting [3]), < 0.5 µM; at Tyro3 it was 1 to 3 µM.
As for `Cn1cc(C(=O)NCC2(c3cccc(-c4ncnc5[nH]ccc45)c3)Cc3ccccc3C2)cn1` [Example 33, 1-Methyl-N-({2-[3-(7H-pyrrolo[2,3-d]pyrimidin-4-yl)phenyl]-2,3-dihydro-1H-inden-2-yl}methyl)-1H-pyrazole-4-carboxamide], the IC50 on c-Mer, at phosphor-Axl and on Tyro3 was > 3 µM in each case.
Turning to `O=C(NCC1(c2cccc(-c3ncnc4[nH]ccc34)c2)Cc2ccccc2C1)C1CC1` [Example 18, N-({2-[3-(7H-Pyrrolo[2,3-d]pyrimidin-4-yl)phenyl]-2,3-dihydro-1H-inden-2-yl}methyl)cyclopropanecarboxamide], the IC50 on c-Mer (setting [2]) was < 0.5 µM; on phosphor-Axl (setting [3]), < 0.5 µM; on Tyro3, > 3 µM.
For the molecule `OCC1(c2cccc(-c3ncnc4[nH]ccc34)c2)Cc2ccccc2C1` [Example 12, {2-[3-(7H-Pyrrolo[2,3-d]pyrimidin-4-yl)phenyl]-2,3-dihydro-1H-inden-2-yl}methanol], the IC50 on c-Mer (setting [2]) was < 0.5 µM; at phosphor-Axl (setting [3]), < 0.5 µM; at Tyro3, > 3 µM.
Take `COC(=O)NCC1(c2cccc(-c3ncnc4[nH]ccc34)c2)Cc2ccccc2C1` [Example 22, Methyl ({2-[3-(7H-pyrrolo[2,3-d]pyrimidin-4-yl)phenyl]-2,3-dihydro-1H-inden-2-yl}methyl)carbamate]: the results for the IC50 at c-Mer (setting [2]), at phosphor-Axl (setting [3]) and on Tyro3 were < 0.5 µM, < 0.5 µM and > 3 µM, respectively.
With `CCOc1cn(-c2ccc(F)cc2C)nc1C(=O)Nc1ccc(Oc2ccnc3cc(OC)c(OC)cc23)c(F)c1` [LDC1267], in the assay on NK cells, the “activation of NK cells” value is “activates NK cells”. Further, in assay [1], the “metastasis in tumor models” value is listed as “blocks metastasis”.

(Values after US10519163B2, “Pyrrolopyrimidine derivatives as TAM inhibitors” (Incyte Corporation, priority 2015, dated 2019).)
